{"source": "patent US6008258A", "about": "(priority 1998, dated 1999)", "key": {"[1]": {"target": "NMDA receptor, rat forebrain", "settings": "used to calculate Ki; no footnote a; read-out: Kd (CGS19755), forebrain; cited from earlier work"}, "[2]": {"test_system": "formalin-induced nociceptive behavior", "settings": "pretreatment, literature, cited from earlier work"}, "morphine tolerance": {"test_system": "morphine tolerance", "settings": "Elliott et al.; cited from earlier work"}, "rat [3]": {"test_system": "rat", "assay": "Tail-flick test, intrathecal, cumulative dose-response and time course", "settings": "for blockade of antinociceptive effect of l-methadone: naloxone 30 μg/rat + l-methadone 80 μg/rat IT; for antinociceptive (analgesic) effect in tail-flick test: up to cumulative 460 μg/rat"}, "rat [4]": {"test_system": "rat", "assay": "Formalin test (formalin-induced flinching), intrathecal drug"}, "[5]": {"test_system": "NMDA receptor (noncompetitive MK-801 site), rat forebrain", "type": "binding"}, "[6]": {"test_system": "NMDA-induced nociceptive behaviors", "settings": "Okano et al.; cited from earlier work"}, "NMDA receptors": {"test_system": "NMDA receptors", "settings": "cited from earlier work"}, "rat [7]": {"test_system": "rat", "type": "in vivo"}, "spinal cord neurons": {"test_system": "spinal cord neurons", "settings": "Dickenson et al.; cited from earlier work"}, "[8]": {"test_system": "pain syndromes unresponsive to morphine", "settings": "anecdotal case reports; cited from earlier work"}, "[9]": {"test_system": "NMDA-induced depolarization", "settings": "in vitro (Ebert), cited from earlier work"}, "[10]": {"test_system": "NMDA receptor in rat cortical membranes", "settings": "rat cortical membranes (Ebert); cited from earlier work"}, "[11]": {"test_system": "mu-type of the opioid receptor", "settings": "Neil; cited from earlier work"}, "NMDA-induced behaviors": {"test_system": "NMDA-induced behaviors", "assay": "Intrathecal NMDA-induced nociceptive behaviors"}, "rat [12]": {"test_system": "rat", "settings": "rats (Ingoglia); cited from earlier work"}, "humans": {"test_system": "humans", "settings": "humans (Olsen); cited from earlier work"}, "mice": {"test_system": "mice", "settings": "mice (Smits); cited from earlier work"}}, "note": "“Also recorded” adds a separate entry of the source. Counter-ions that a name gives are not always drawn. Like-named read-outs stand apart in the source and are kept apart here."}
{"molecule": "O=C(O)[C@@H]1C[C@H](CP(=O)(O)O)CCN1", "note": "[CGS19755]", "values": [{"measurement": "Kd", "setting": "[1]", "result": 24, "unit": "nM"}]}
{"molecule": "C[C@]12N[C@H](Cc3ccccc31)c1ccccc12", "note": "[MK-801, (+)-5 methyl-10,11-dihydro-5H-dibenzo[a,d]cyclo-hepten-5, 10-imine hydrogen maleate]", "values": [{"measurement": "effect on nociceptive responses in formalin test", "setting": "[2]", "result": "reduces"}, {"measurement": "effect on development of tolerance to morphine", "setting": "morphine tolerance", "result": "attenuates and reverses"}]}
{"molecule": "C=CCN1CC[C@]23c4c5ccc(O)c4O[C@H]2C(=O)CC[C@@]3(O)[C@H]1C5", "note": "[Naloxone]", "values": [{"measurement": "effect of naloxone alone on base-line tail-flick latencies / antinociception", "setting": "rat [3]; 30 μg/rat spinal", "result": "did not affect base-line tail-flick latencies or produce an antinociceptive (analgesic) response"}, {"measurement": "blockade of antinociceptive effect of l-methadone", "setting": "rat [3]", "result": "completely blocked"}, {"measurement": "blockade of antinociceptive effect of l-methadone", "setting": "rat [3]; listed as naloxone", "result": "completely blocked; also recorded: blocks; also recorded: effectively antagonized"}, {"measurement": "duration of blockade of l-methadone effect", "setting": "rat [3]; naloxone 30 μg/rat vs l-methadone 80 μg/rat", "result": "at least 75 minutes"}, {"measurement": "reversal by naloxone of antinociceptive effect of d-methadone", "setting": "rat [4]; naloxone 30 μg/rat + d-methadone 250 μg/rat IT", "result": "did not affect; also recorded: not reversed; also recorded: not blocked"}]}
{"molecule": "O=C1CC[C@@]2(O)[C@H]3Cc4ccc(O)c5c4[C@@]2(CCN3CC2CC2)[C@H]1O5", "note": "[Naltrexone]", "values": [{"measurement": "displacement of [3H]MK-801 binding", "setting": "[5]", "result": "did not displace"}, {"measurement": "Ki", "setting": "[5]; read-out: [3H]MK-801 Ki, forebrain", "result": "> 100000", "unit": "nM"}]}
{"molecule": "3-amino-5-phosphonovaleric acid [APV]", "values": [{"measurement": "effect on nociceptive responses in formalin test", "setting": "[2]", "result": "reduces"}, {"measurement": "antagonism of NMDA-induced nociceptive behaviors", "setting": "[6]", "result": "antagonized"}]}
{"molecule": "CN1CC[C@]23c4c5ccc(O)c4O[C@H]2[C@@H](O)C=C[C@H]3[C@H]1C5", "note": "[Morphine]", "values": [{"measurement": "binding to NMDA receptors", "setting": "NMDA receptors", "result": "do not bind to NMDA receptors"}, {"measurement": "Morphine ED50 (95% CI)", "setting": "rat [7]; SALINE + MORPHINE, Day 2 (so in the source)", "result": "37.6 (28.5-56.7) ug/rat"}, {"measurement": "Morphine ED50 (95% CI)", "setting": "rat [7]; SALINE, Day 1", "result": "1.0 (0.5-1.8) ug/rat"}]}
{"molecule": "CCC(=O)C(C[C@@H](C)N(C)C)(c1ccccc1)c1ccccc1", "note": "[l-Methadone, (R)-(-)-methadone]", "values": [{"measurement": "time of peak analgesic effect", "setting": "rat [3]; 40 μg/rat spinal, time course study", "result": 15, "unit": "min"}, {"measurement": "ED50, tail-flick test", "setting": "rat [3]; IT, cumulative dose-response", "result": 15.6, "unit": "ug/rat"}, {"measurement": "antinociceptive (analgesic) effect in tail-flick test", "setting": "rat [3]; intrathecal", "result": "dose-dependent antinociception"}, {"measurement": "ED50, tail-flick antinociception", "setting": "rat [3]; intrathecal, 95% CI 7.0-29.8", "result": 15.6, "unit": "μg/rat"}, {"measurement": "approximately ED90 antinociceptive dose", "setting": "rat [3]; spinal, tail-flick test", "result": "~80", "unit": "μg/rat"}]}
{"molecule": "COc1ccc2c(c1)[C@]13CCCC[C@@H]1[C@H](C2)N(C)CC3", "note": "[Dextromethorphan]", "values": [{"measurement": "effect on nociceptive responses in formalin test", "setting": "[2]", "result": "attenuates nociceptive responses"}, {"measurement": "effect on nociceptive responses in formalin test", "setting": "[2]; listed as dextromethorphan", "result": "reduces"}, {"measurement": "effect on development of tolerance to morphine", "setting": "morphine tolerance", "result": "attenuates and reverses"}, {"measurement": "effect on wind up of spinal cord neurons", "setting": "spinal cord neurons", "result": "suppresses"}]}
{"molecule": "CCC(=O)C(CC(C)N(C)C)(c1ccccc1)c1ccccc1", "note": "(racemic) [dl-Methadone]", "values": [{"measurement": "management of pain syndromes unresponsive to morphine", "setting": "[8]", "result": "successful management"}, {"measurement": "effect on NMDA-induced depolarization", "setting": "[9]", "result": "reduced NMDA-induced depolarizations"}, {"measurement": "effect on NMDA-induced depolarization", "setting": "[9]; listed as racemic methadone", "result": "reduces NMDA-induced depolarization"}, {"measurement": "affinity for the NMDA receptor", "setting": "[10]", "result": "low μm affinity"}, {"measurement": "binding to mu-type of the opioid receptor", "setting": "[11]", "result": "binds preferentially"}]}
{"molecule": "O=C(O)[C@@H]1C[C@H]2C[C@@H](CP(=O)(O)O)CC[C@H]2CN1", "note": "[LY274614]", "values": [{"measurement": "effect on development of tolerance to morphine", "setting": "morphine tolerance", "result": "attenuates and reverses"}]}
{"molecule": "CN[C@H](CC(=O)O)C(=O)O", "note": "[NMDA, N-methyl-D-aspartate]", "values": [{"measurement": "ED99 dose of NMDA", "setting": "NMDA-induced behaviors; intrathecal", "result": 2.4, "unit": "nmol/rat"}, {"measurement": "NMDA ED50 (95% CI)", "setting": "NMDA-induced behaviors; pretreatment with saline or d-methadone 250 μg/rat", "result": "1.3 (1.0-1.6) nmol/rat IT"}]}
{"molecule": "CNC1(c2ccccc2Cl)CCCCC1=O", "note": "(centres unmarked) [Ketamine]", "values": [{"measurement": "effect on nociceptive responses in formalin test", "setting": "[2]", "result": "reduces"}]}
{"molecule": "CCC(=O)C(C[C@H](C)N(C)C)(c1ccccc1)c1ccccc1", "note": "[d-Methadone, (S)-(+)-methadone]", "values": [{"measurement": "blockade of an ED99 dose of NMDA", "setting": "NMDA-induced behaviors; 250 μg (809 nmol)/rat, NMDA 2.4 nmol/rat", "result": "completely blocked"}, {"measurement": "increase of NMDA ED50", "setting": "NMDA-induced behaviors; d-methadone 250 μg/rat", "result": "more than 3 fold"}, {"measurement": "antinociceptive (analgesic) effect in tail-flick test", "setting": "rat [3]; intrathecal", "result": "no antinociceptive effects"}, {"measurement": "antinociceptive (analgesic) effect in tail-flick test", "setting": "rat [3]; intrathecal, listed as d-methadone", "result": "None of the rats that received d-methadone became an analgesic responder; also recorded: no analgesia"}, {"measurement": "activity following intraventricular administration", "setting": "rat [12]", "result": "inactive"}, {"measurement": "development of morphine tolerance", "setting": "rat [7]; rat, in vivo", "result": "prevented the development of morphine tolerance"}, {"measurement": "effect of d-methadone alone on morphine ED50", "setting": "rat [7]; rat, in vivo", "result": "did not alter"}, {"measurement": "morphine ED50 in d-methadone+morphine group", "setting": "rat [7]; rat, in vivo", "result": "not significantly increased"}, {"measurement": "analgesic potency vs l-methadone (less potent)", "setting": "humans", "result": 50, "unit": "fold"}, {"measurement": "opioid-like locomotor activity", "setting": "mice", "result": "does not produce opioid-like locomotor activity"}, {"measurement": "effect on phase 2 flinching vs saline", "setting": "rat [4]; 250 μg/rat IT, with or without naloxone 30 μg/rat", "result": "significantly reduce"}, {"measurement": "decrease in phase 2 flinching", "setting": "rat [4]; 320 μg/rat spinal", "result": 68, "unit": "%"}, {"measurement": "effect on number of flinches, phase 1", "setting": "rat [4]; IT 32, 160, 320 μg/rat, 0-10 minutes", "result": "did not affect; also recorded: not during phase 1"}, {"measurement": "effect on flinching behavior, phase 2", "setting": "rat [4]; IT 32, 160, 320 μg/rat, 10-60 minutes", "result": "dose-dependently reduces"}]}
